Consider two compounds from article PMC8552302 (Journal of medicinal chemistry, 2021).

Data set [1] addresses mMC3R (Mus musculus, UniProt P33033). As to the kind of experiment: β-galactosidase cAMP reporter agonist assay, mMC3R. Conditions: read-out: efficacy at the mMC3R compared to the maximal response of α-MSH.
The conditions of data set [2]: rhesus monkey, in vivo; cited from earlier work.

Sequence of mMC3R (P33033 whole entry): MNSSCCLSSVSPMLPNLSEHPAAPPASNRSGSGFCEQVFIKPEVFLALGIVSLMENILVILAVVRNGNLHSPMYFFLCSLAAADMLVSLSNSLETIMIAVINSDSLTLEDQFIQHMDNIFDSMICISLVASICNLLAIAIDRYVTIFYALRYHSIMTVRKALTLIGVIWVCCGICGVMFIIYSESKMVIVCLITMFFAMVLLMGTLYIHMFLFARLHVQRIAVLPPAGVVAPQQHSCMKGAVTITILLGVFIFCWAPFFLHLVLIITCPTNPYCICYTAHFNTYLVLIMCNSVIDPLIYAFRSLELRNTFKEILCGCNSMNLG

For `O=C(NC(Cc1ccc(Cl)cc1)C(=O)N1CCC(Cn2cncn2)(C2CCCCC2)CC1)[C@H]1Cc2ccccc2CN1` (stereo in doubt) [THIQ, N-[(3R)-1,2,3,4-tetrahydroisoquinolinium-3-ylcarbonyl]-(1R)-1-(4-chlorobenzyl)2-[4-cyclohexyl-4-(1H-1,2,4-triazol-1-ylmethyl)piperidin-1-yl]-2-oxoethylamine], in data set [1], the Emax lay in the range of 90 to 95%.
As for “Ac-DArg-c[Cys-Glu-His-DPhe-Arg-Trp-Cys-NH2 [LY2112688]”, the “effect on heart rate and blood pressure” value in data set [2] was “significantly increased heart rate and blood pressure”.
